# Test results: paper PMC9873984, “Membrane cholesterol regulates inhibition and substrate transport by the glycine transporter, GlyT2” (Life Science Alliance, 2023)
# System: Xenopus laevis oocytes
# Assay: Quantification of cholesterol content of oocytes (Amplex Red)
# Format: cell-based
# Details: 15 mM for 30 min at 32°C; normalized to control oocytes
# Experimental: The cell was then unclamped and removed from the electrophysiology rig and placed in an incubator at 32°C in a solution containing 15 mM MβCD for 30 min. The oocyte was then replaced in the electrophysiology rig and washed for 10 min in recording buffer, the voltage clamp was re-established, and the glycine transport currents were remeasured. […] Under these conditions, MβCD caused a 44% reduction in membrane cholesterol content, which is consistent with previous studies in oocytes (Fig 4) ([Santiago et al, 2001]; [Sadler & Jacobs, 2004]).
# Figure 4. Cholesterol levels of control and MβCD-treated Xenopus laevis oocytes. Groups of six oocytes were incubated in 0 mM (control) or 15 mM MβCD for 30 min at 32°C. After incubation, oocytes were lysed in 1% Triton X-100 by vortexing and manually disrupting the membranes with forceps. Cell lysates were centrifuged, and the cholesterol content of the supernatant was quantified using the Amplex Red method. […]
# Control and MβCD-treated oocytes were lysed in 1% Triton X-100 (Sigma-Aldrich) by vortexing and manually disrupting the membranes with forceps. […] The supernatant was then treated in accordance with the manufacturer’s protocol for the Amplex Red Cholesterol Assay Kit (Thermo Fisher Scientific) to quantify differences in cholesterol content.
substance,measurement,value
methyl-β-cyclodextrin [MβCD],Reduction in membrane cholesterol content,44%
